This passage reports solubility results from patent publication EP4620304A1, “FORMULATION COMPRISING CLOMAZONE AND DIURON” (Adama Agan Ltd., priority 2024, dated 2025).

≈ marks a conversion by molar mass, not a printed value. Like-named read-outs stand apart in the source and are kept apart here.

This data set can be described thus: Solubility in clomazone or propylene glycol by visual verification (turbidity). The note with it: organic solvent or mixture, thermodynamic from solid. The data set is classed as physicochemical. The procedure:
All solubilities mentioned in the present document were measured through visual verification. In a known quantity of clomazone or propylene glycol at a desired temperature, the solute (e.g. hexazinone or diuron) was added at a rate of 0.2g/5min.

Take `CN(C)C(=O)Nc1ccc(Cl)c(Cl)c1` [Diuron]: the solubility (commonly how much of the substance goes into solution per volume) (23 °C, 23 °C, read-out: Solubility of Diuron in Clomazone) came to 28 mg/mL (≈ 120 mM); the solubility (40 °C, 40 °C, read-out: Solubility of Diuron in Clomazone) came out at 36 mg/mL (≈ 154 mM); the solubility (54 °C, 54 °C, read-out: Solubility of Diuron in Clomazone) turned out to be 61 mg/mL (≈ 262 mM).
In the case of `CN(C)c1nc(=O)n(C2CCCCC2)c(=O)n1C` [Hexazinone], the solubility runs as follows: (23 °C, Solubility of Hexazinone in Clomazone) 53 mg/mL (≈ 210 mM); (23 °C, Solubility of Hexazinone in Propileneglycol) 510 mg/mL (≈ 2020 mM); (40 °C, Solubility of Hexazinone in Clomazone) 62 mg/mL (≈ 246 mM); (40 °C, Solubility of Hexazinone in Propileneglycol) 580 mg/mL (≈ 2300 mM); (54 °C, Solubility of Hexazinone in Clomazone) 73 mg/mL (≈ 289 mM); (54 °C, Solubility of Hexazinone in Propileneglycol) 630 mg/mL (≈ 2500 mM).
